Measured values reported in PubChem BioAssay (NCI).
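Cultured in 96-well plates, cells were exposed to test compound for 48 hours across five concentrations. Here, GI50 denotes the concentration required for 50% inhibition of growth. TGI is the concentration that stops growth completely.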

Assays:
Test in all cases: DTP human tumour cell line panel, 48 h
OVCAR-8 ovarian = system: OVCAR-8 ovarian
SK-OV-3 ovarian = system: SK-OV-3 ovarian
HS 578T breast = system: HS 578T breast
UACC-62 melanoma = system: UACC-62 melanoma
SK-MEL-2 melanoma = system: SK-MEL-2 melanoma
MOLT-4 leukemia = system: MOLT-4 leukemia
OVCAR-4 ovarian = system: OVCAR-4 ovarian
MDA-MB-231 breast = system: MDA-MB-231 breast
HCT-116 colon = system: HCT-116 colon
UACC-257 melanoma = system: UACC-257 melanoma
MDA-MB-435 = system: MDA-MB-435
HT29 colon = system: HT29 colon
786-0 renal = system: 786-0 renal
SF-295 CNS = system: SF-295 CNS
SF-268 CNS = system: SF-268 CNS
LOX IMVI melanoma = system: LOX IMVI melanoma
OVCAR-5 ovarian = system: OVCAR-5 ovarian
NCI-H460 lung = system: NCI-H460 lung
SN12C renal = system: SN12C renal
U251 CNS = system: U251 CNS
TK-10 renal = system: TK-10 renal
COLO 205 colon = system: COLO 205 colon
IGROV1 ovarian = system: IGROV1 ovarian
NCI/ADR-RES ovarian = system: NCI/ADR-RES ovarian
SF-539 CNS = system: SF-539 CNS
SR leukemia = system: SR leukemia
OVCAR-3 ovarian = system: OVCAR-3 ovarian
SK-MEL-28 melanoma = system: SK-MEL-28 melanoma
HL-60(TB) leukemia = system: HL-60(TB) leukemia
EKVX NSCLC = system: EKVX NSCLC
ACHN renal = system: ACHN renal
SW-620 colon = system: SW-620 colon
PC-3 prostate = system: PC-3 prostate
BT-549 breast = system: BT-549 breast
SNB-75 CNS = system: SNB-75 CNS
DU-145 prostate = system: DU-145 prostate
CCRF-CEM leukemia = system: CCRF-CEM leukemia
A549 NSCLC = system: A549 NSCLC
HOP-62 NSCLC = system: HOP-62 NSCLC
RXF 393 renal = system: RXF 393 renal
K-562 leukemia = system: K-562 leukemia
NCI-H226 lung = system: NCI-H226 lung
NCI-H522 lung = system: NCI-H522 lung
HCT-15 colon = system: HCT-15 colon
NCI-H23 lung = system: NCI-H23 lung
CAKI-1 renal = system: CAKI-1 renal
HOP-92 NSCLC = system: HOP-92 NSCLC
RPMI-8226 leukemia = system: RPMI-8226 leukemia
HCC-2998 colon = system: HCC-2998 colon
A498 renal = system: A498 renal
T-47D breast = system: T-47D breast
M14 melanoma = system: M14 melanoma
UO-31 renal = system: UO-31 renal
SK-MEL-5 melanoma = system: SK-MEL-5 melanoma
KM12 colon = system: KM12 colon
MALME-3M melanoma = system: MALME-3M melanoma
MCF7 breast = system: MCF7 breast
SNB-19 CNS = system: SNB-19 CNS

## Cn1c2ccccc2c2nnc(N/N=C/c3ccccn3)nc21
OVCAR-8 ovarian
  GI50: 426 nM
  TGI: > 84200 nM
SK-OV-3 ovarian
  GI50: 421 nM
  TGI: 21900 nM
HS 578T breast
  GI50: 2060 nM
  TGI: 82900 nM
UACC-62 melanoma
  GI50: 300 nM
  TGI: 1030 nM
SK-MEL-2 melanoma
  GI50: 953 nM
  TGI: 16900 nM
MOLT-4 leukemia
  GI50: 271 nM
OVCAR-4 ovarian
  GI50: 419 nM
  TGI: > 58900 nM
MDA-MB-231 breast
  GI50: 478 nM
  TGI: 38100 nM
HCT-116 colon
  GI50: 349 nM
  TGI: > 38400 nM
UACC-257 melanoma
  GI50: 433 nM
MDA-MB-435
  GI50: 459 nM
  TGI: > 54600 nM
HT29 colon
  GI50: 529 nM
  TGI: > 100000 nM
786-0 renal
  GI50: 256 nM
  TGI: 758 nM
SF-295 CNS
  GI50: 370 nM
  TGI: > 23900 nM
SF-268 CNS
  GI50: 343 nM
LOX IMVI melanoma
  GI50: 331 nM
  TGI: 3330 nM
OVCAR-5 ovarian
  GI50: 1270 nM
  TGI: > 72400 nM
NCI-H460 lung
  GI50: 346 nM
  TGI: 5690 nM
SN12C renal
  GI50: 286 nM
U251 CNS
  GI50: 357 nM
  TGI: 14000 nM
TK-10 renal
  GI50: 413 nM
  TGI: > 57800 nM
COLO 205 colon
  GI50: 401 nM
  TGI: 18500 nM
IGROV1 ovarian
  GI50: 440 nM
  TGI: > 23600 nM
NCI/ADR-RES ovarian
  GI50: 336 nM
  TGI: 8890 nM
SF-539 CNS
  GI50: 284 nM
  TGI: 854 nM
SR leukemia
  GI50: 230 nM
  TGI: > 100000 nM
OVCAR-3 ovarian
  GI50: 489 nM
  TGI: > 33000 nM
SK-MEL-28 melanoma
  GI50: 494 nM
  TGI: 26600 nM
HL-60(TB) leukemia
  GI50: 222 nM
  TGI: 3850 nM
EKVX NSCLC
  GI50: 293 nM
  TGI: > 32000 nM
ACHN renal
  GI50: 350 nM
  TGI: > 21400 nM
SW-620 colon
  GI50: 509 nM
  TGI: > 82100 nM
PC-3 prostate
  GI50: 1440 nM
  TGI: > 100000 nM
BT-549 breast
  GI50: 452 nM
  TGI: > 38900 nM
SNB-75 CNS
  GI50: 1090 nM
  TGI: 6780 nM
DU-145 prostate
  GI50: 377 nM
  TGI: > 27300 nM
CCRF-CEM leukemia
  GI50: 301 nM
  TGI: > 33100 nM
A549 NSCLC
  GI50: 461 nM
  TGI: > 27500 nM
HOP-62 NSCLC
  GI50: 337 nM
  TGI: 6020 nM
RXF 393 renal
  GI50: 2800 nM
  TGI: > 42300 nM
K-562 leukemia
  GI50: 1750 nM
  TGI: > 39600 nM
NCI-H226 lung
  GI50: 337 nM
  TGI: 5360 nM
NCI-H522 lung
  GI50: 574 nM
  TGI: 33000 nM
HCT-15 colon
  GI50: 374 nM
  TGI: > 100000 nM
NCI-H23 lung
  GI50: 382 nM
  TGI: > 22600 nM
CAKI-1 renal
  GI50: 264 nM
  TGI: 1190 nM
HOP-92 NSCLC
  GI50: 413 nM
  TGI: > 59100 nM
RPMI-8226 leukemia
  GI50: 367 nM
  TGI: 16600 nM
HCC-2998 colon
  GI50: 529 nM
  TGI: > 63800 nM
A498 renal
  GI50: 396 nM
  TGI: 5050 nM
T-47D breast
  GI50: 392 nM
  TGI: 10800 nM
M14 melanoma
  GI50: 285 nM
UO-31 renal
  GI50: 361 nM
  TGI: 5300 nM
SK-MEL-5 melanoma
  GI50: 240 nM
  TGI: 806 nM
KM12 colon
  GI50: 535 nM
  TGI: > 38300 nM
MALME-3M melanoma
  GI50: 334 nM
  TGI: 2260 nM
MCF7 breast
  GI50: 285 nM
  TGI: 6590 nM
SNB-19 CNS
  GI50: 412 nM
  TGI: > 100000 nM
